The text below walks through data of US20090097026A1, “COLOR MEASUREMENTS OF RECONSTITUTED TIGECYCLINE AND DEGRADANT THEREOF” (Wyeth, priority 2007, published 2009).

A short description of data set [1]: Color value of reconstituted tigecycline and tigecycline API spiked with Compound I. The format is physicochemical. Conditions: spiked into reconstituted tigecycline and tigecycline API; visual observation. Here is the method:
The spiking concentrations required to produce a clear color change in tigecycline (tigecycline for injection 50 mg/vial (lactose formulation)) was characterized using both a Hunterlab UltraScan XE color spectrophotometer and a quantitative HPLC method. The threshold for visual green color resulting from spiking with Compound I colored degradant was determined for each category of tigecycline samples. An excellent linear correlation (R>0.99) between the concentration of Compound I and the calculated color value is observed. The spiking of tigecycline with ca. 0.045 concentration Compound I results in observation of a slightly green color in the reconstituted tigecycline and tigecycline API. This green color is more pronounced at the higher Compound I concentration. Tables 1, 2, 3 and 4 summarize the calculated color values and HPLC results for tigecycline Registration stability batches (CR0040-50-01, CR0040-50-02, CR0040-50-03), validation stability batches (B41133, B41404, B41710) and API used in the validation stability batches (3000002665, 2000140691, 2000140693). As per the color methods employed the calculated color value is calculated from the measured CIEL*a*b* values using the equation below:
Calculated Color Value=2.19×L*+2.59×a*−0.48×b*
The samples were tested immediately after reconstitution according to the label directions (5.3 ml of 0.9% saline). […]

A short description of data set [2]: Stability / oxidative degradation observations. The format is physicochemical. Particulars: result in words. The source says: Compound I was isolated from forced degradation samples of tigecycline and is unstable. This blue compound was characterized by LC-MS/MS and NMR as an iminoquinone derivative of tigecycline, an oxidative degradant with a positive ionic formula of C29H38N5O10 formed when tigecycline is exposed to air for twenty-four hours. A linear correlation (R>0.99) between the concentration of Compound I and the calculated color value was discovered. In substantially pure form, Compound I is useful as a test standard for determining the concentration of Compound I in a sample of Tigecycline. Compound I may be obtained in substantially pure form from the compound Tygecycline according to the following method: Tygecycline is degraded at room temperature by dissolving it in water open to air and stirring for a few hours until the solution changes color from yellow/orange to dark green. […]
Compound I was studied by NMR spectroscopy as well. […] A highly intense singlet peak at δH 3.59 was assigned to methyl protons of the C-7 dimethyl amino group, and their associated carbons were detected at δC 47.1 in the HSQC spectrum. […]

As for `CN(C)c1c(O)c(C(N)=O)c(O)c(O)c1C[C@H]1C(C(=O)O)=C(O)C2=C(C(=[N+](C)C)C=C(NC(=O)CNC(C)(C)C)C2=O)[C@@H]1O` [Compound I], in data set [1], the “concentration of Compound I that results in a slightly green color” value was “ca. 0.045”.

As to `CN(C)c1cc(NC(=O)CNC(C)(C)C)c(O)c2c1C[C@H]1C[C@H]3[C@H](N(C)C)C(O)=C(C(N)=O)C(=O)[C@@]3(O)C(O)=C1C2=O` [tigecycline], the stability result in data set [2] is “susceptible to oxidative degradation”.
